In experiment [1] the test system is Staphylococcus aureus. Description: Ratio of norfloxacin MIC to compound MIC for methicillin-resistant Staphylococcus aureus N315. The format is functional.
Experiment [2] concerns Staphylococcus aureus. Description: Ratio of chloromycin MIC to compound MIC for methicillin-resistant Staphylococcus aureus N315. The format is functional.
For experiment [3], the system named is Aspergillus flavus. Description: Ratio of Fluconazole MIC to compound MIC for Aspergillus flavus. The format is functional.
A further experiment concerns Salmonella typhi. The experiment in a line: Antibacterial activity against Eberthella typhosa by NCCLS method. Type of experiment: functional, Salmonella enterica subsp. enterica serovar Typhi. The following applies: Salmonella enterica.
The next experiment concerns Pseudomonas aeruginosa. Description: Antibacterial activity against Pseudomonas aeruginosa by NCCLS method. Type of experiment: functional.
For another experiment, the system named is Escherichia coli. Description: Antibacterial activity against Escherichia coli DH52 by NCCLS method. The format is functional.
Another experiment has as its system Shigella dysenteriae. Description: Antibacterial activity against Shigella dysenteriae by NCCLS method. The format is functional.
Experiment [4] has as its system Staphylococcus aureus. The experiment in a line: Antibacterial activity against Staphylococcus aureus ATCC 25923 by NCCLS method. The format is functional.
Experiment [5] deals with Staphylococcus aureus. The experiment in a line: Antibacterial activity against methicillin-resistant Staphylococcus aureus N315 by NCCLS method. Type of experiment: functional.
A further experiment relates to Micrococcus luteus. Description: Antibacterial activity against Micrococcus luteus ATCC 4698 by NCCLS method. The format is functional.
Another experiment relates to Candida albicans. The experiment in a line: Antifungal activity against Candida albicans by NCCLS method. Type of experiment: functional.
In a further experiment the test system is Saccharomyces cerevisiae. The experiment in a line: Antifungal activity against Saccharomyces cerevisiae by NCCLS method. Type of experiment: functional.
The subject of experiment [6] is Aspergillus flavus. Description: Antifungal activity against Aspergillus flavus by NCCLS method. Type of experiment: functional.
For a further experiment, the system named is Cyberlindnera jadinii. The experiment in a line: Antifungal activity against Candida utilis by NCCLS method. Type of experiment: functional. The following applies: Williopsis jadinii.
Experiment [7] has as its system DNA. Description: Binding affinity to calf thymus DNA-NR complex assessed as increase in fluorescence intensity at 726 nm wavelength. The format is nucleic-acid assay. The conditions noted are these: Bos taurus.
The test system of experiment [8] is DNA. Description: Binding affinity to calf thymus DNA-NR complex assessed as decrease in fluorescence intensity at 640 nm wavelength. Type of experiment: nucleic-acid assay. The conditions noted are these: Bos taurus.
Experiment [9] concerns DNA. The experiment in a line: Competitive binding affinity to calf thymus DNA by UV-vis spectroscopic analysis in presence of neutral red. Type of experiment: nucleic-acid assay. The conditions noted are these: Bos taurus.
The subject of experiment [10] is DNA. Description: Binding affinity to calf thymus DNA at 0.5 to 3x10'-5 mol/L by fluorescence quenching assay. Type of experiment: nucleic-acid assay. The conditions noted are these: Bos taurus.
The test system of experiment [11] is DNA. Description: Binding affinity to calf thymus DNA by fluorescence quenching assay in presence of potassium iodide. The format is nucleic-acid assay. The following applies: Bos taurus.
The test system of experiment [12] is DNA. Description: Binding affinity to calf thymus DNA assessed as blue shift by UV-vis spectroscopic analysis. The conditions noted are these: Bos taurus. Type of experiment: nucleic-acid assay.

Converted amounts (≈) assume the structure as drawn. The source made the active and inactive calls. The rule behind the calls is not given here. A value given as a limit tells only on which side of the number the result lay.

Turning to `CCOC(=O)c1cn(CC2CO2)c2cc(C(F)(F)F)ccc2c1=O` (racemic), the Ratio in the experiment on Staphylococcus aureus [1] is listed as 16; in the experiment on Staphylococcus aureus [2], 32; with Aspergillus flavus [3] it was 256. Also, the minimal inhibitory concentration (MIC) in the experiment with Salmonella typhi is 2 µg/mL (≈ 5.86 µM); against Pseudomonas aeruginosa, 64 µg/mL (≈ 188 µM); in the experiment with Escherichia coli, 64 µg/mL (≈ 188 µM); against Shigella dysenteriae it was 256 µg/mL (≈ 750 µM); with Staphylococcus aureus [4] it was 256 µg/mL (≈ 750 µM); against Staphylococcus aureus [5] it was 0.5 µg/mL (≈ 1.47 µM). The minimal inhibitory concentration (MIC) with Micrococcus luteus is 128 µg/mL (≈ 375 µM); against Candida albicans, 4 µg/mL (≈ 11.7 µM); in the experiment on Saccharomyces cerevisiae, 8 µg/mL (≈ 23.4 µM); against Aspergillus flavus [6], 0.5 µg/mL (≈ 1.47 µM); in the experiment on Cyberlindnera jadinii it was greater than 512 µg/mL.

In the case of `O=C(O)c1cn(CC(O)Cn2cncn2)c2ccc(F)cc2c1=O` (configuration not stated), the Ratio amounted to 8 in the experiment with Staphylococcus aureus [1] and 16 in the experiment with Staphylococcus aureus [2]. The minimum inhibitory concentration (MIC) in the experiment with Salmonella typhi was 1 µg/mL (≈ 3.01 µM); in the experiment on Pseudomonas aeruginosa it was 8 µg/mL (≈ 24.1 µM); with Escherichia coli it was 32 µg/mL (≈ 96.3 µM); in the experiment with Shigella dysenteriae, 0.5 µg/mL (≈ 1.5 µM); with Staphylococcus aureus [4], 128 µg/mL (≈ 385 µM); in the experiment with Staphylococcus aureus [5], 1 µg/mL (≈ 3.01 µM). Also, the MIC in the experiment on Micrococcus luteus was 32 µg/mL (≈ 96.3 µM); against Candida albicans, 64 µg/mL (≈ 193 µM); against Saccharomyces cerevisiae, 512 µg/mL (≈ 1540 µM); against Aspergillus flavus [6] it was 512 µg/mL (≈ 1540 µM); against Cyberlindnera jadinii it was greater than 512 µg/mL.

`Cc1ccc2c(c1)c(=O)c(C(=O)O)cn2CC(O)Cn1cncn1` (configuration not stated): the result with DNA [7], with DNA [8], in the experiment on DNA [9] and in the experiment with DNA [10] was Active. The KSV with DNA [11] amounted to 6.53 L/mol. In addition, the K in the experiment with DNA [12] amounted to 1.43 ×10³ L/mol. Further, the MIC against Salmonella typhi was determined as 8 µg/mL (≈ 24.4 µM); with Pseudomonas aeruginosa it was 16 µg/mL (≈ 48.7 µM); against Escherichia coli, 32 µg/mL (≈ 97.5 µM); in the experiment with Shigella dysenteriae, 32 µg/mL (≈ 97.5 µM); in the experiment on Staphylococcus aureus [4], 32 µg/mL (≈ 97.5 µM); with Staphylococcus aureus [5] it was 8 µg/mL (≈ 24.4 µM). In addition, the minimum inhibitory concentration (MIC) against Micrococcus luteus was 16 µg/mL (≈ 48.7 µM); with Candida albicans it was 2 µg/mL (≈ 6.09 µM); against Saccharomyces cerevisiae, 4 µg/mL (≈ 12.2 µM); against Aspergillus flavus [6] it was 0.5 µg/mL (≈ 1.52 µM); with Cyberlindnera jadinii, greater than 512 µg/mL.

Consider `CCOC(=O)c1cn(CC(O)Cn2cncn2)c2c(Cl)cc(Cl)cc2c1=O` (racemic), for which the Ratio in the experiment on Staphylococcus aureus [1] came out at 8; with Staphylococcus aureus [2], 16. In addition, the MIC against Salmonella typhi was 4 µg/mL (≈ 9.73 µM); in the experiment on Pseudomonas aeruginosa, 4 µg/mL (≈ 9.73 µM); against Escherichia coli, 4 µg/mL (≈ 9.73 µM); in the experiment on Shigella dysenteriae it was 128 µg/mL (≈ 311 µM); against Staphylococcus aureus [4] it was 1 µg/mL (≈ 2.43 µM); against Staphylococcus aureus [5], 1 µg/mL (≈ 2.43 µM). The MIC was 8 µg/mL (≈ 19.5 µM) with Micrococcus luteus; 512 µg/mL (≈ 1240 µM) against Candida albicans; 32 µg/mL (≈ 77.8 µM) with Saccharomyces cerevisiae; 0.5 µg/mL (≈ 1.22 µM) with Aspergillus flavus [6]; greater than 512 µg/mL in the experiment on Cyberlindnera jadinii.

As a reminder, the MIC is the lowest concentration found to suppress growth.
